PubChem BioAssay (NCI)
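Method: 48-hour compound exposure of cells in 96-well plates, five concentrations, linear interpolation of endpoints. GI50 marks 50% less growth. TGI: total growth inhibition.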

Columns and labels:
Test in all cases: NCI tumour cell line growth inhibition, 48 h
[1] = test system: NCI/ADR-RES ovarian
[2] = test system: MOLT-4 leukemia
[3] = test system: MDA-MB-231 breast
[4] = test system: CAKI-1 renal
[5] = test system: OVCAR-3 ovarian
[6] = test system: K-562 leukemia
[7] = test system: UO-31 renal
[8] = test system: SK-MEL-28 melanoma
[9] = test system: RXF-631 renal
[10] = test system: DLD-1 colon

| Compound | GI50 [1] [µM] | TGI [1] [µM] | GI50 [2] [µM] | TGI [2] [µM] | GI50 [3] [µM] | TGI [3] [µM] | GI50 [4] [µM] | TGI [4] [µM] | GI50 [5] [µM] | TGI [5] [µM] | GI50 [6] [µM] | TGI [6] [µM] | GI50 [7] [µM] | TGI [7] [µM] | GI50 [8] [µM] | TGI [8] [µM] | TGI [9] [µM] | TGI [10] [µM] | GI50 [10] [µM] |
| --- | --- | --- | --- | --- | --- | --- | --- | --- | --- | --- | --- | --- | --- | --- | --- | --- | --- | --- | --- |
| O=C1NC(=O)C(N2CCc3ccccc32)=C1c1ccc(Cl)cc1 | > 25 | > 25 | > 25 | > 25 | > 25 | > 25 | > 25 | > 25 | > 25 | > 25 | > 25 | > 25 | > 17.3 | > 25 | > 25 | > 25 |  |  |  |
| CN(C(=O)C12C3C4C1C1C2C3C41C(=O)N(C)C(C)(C)C)C(C)(C)C (stereo unspecified) |  |  |  | > 50 |  |  |  | > 50 |  | > 50 |  | > 50 |  | > 50 |  | > 50 | > 50 |  |  |
| O=c1c2cc(Br)ccc2[nH]c(=S)n1-c1ccccc1 |  |  |  |  |  |  |  | > 100 |  | > 100 |  | > 100 |  | > 100 |  | > 100 | > 100 | > 100 |  |
| O=c1[nH]cc(CO)c(=O)[nH]1 | > 100 | > 100 | > 100 | > 100 | > 100 | > 100 | > 100 | > 100 | > 100 | > 100 | > 100 | > 100 | > 100 | > 100 | > 100 | > 100 |  |  |  |
| Cc1ccc(NC(C(=O)c2ccccc2)c2ccccc2)cc1 (stereo unspecified) | 18.8 | > 100 | 4.71 | > 100 | 13 | > 100 | 10.6 | 39.7 | 3.31 | 59.9 | 3.07 | > 100 | 13.8 | 35.8 | 8.07 | 37.3 |  |  |  |
| Cc1cc(NS(=O)(=O)c2ccc(NC(=O)COc3ccc(-c4cc5ccccc5[nH]4)cc3)cc2)no1 | 2.64 | 9.37 | 2.05 | 9.72 | 1.66 | 4.37 | 2.57 | 9.28 | 1.72 | 3.75 | 2.06 | > 100 | 1.41 | 3.76 | 1.55 | 3.17 |  |  |  |
| [CH3][Sn]([CH3])([CH3])[O]C(=O)C(O)c1ccccc1 (stereo unspecified) | 6.39 | 79.5 | 4.86 | > 100 | 39.2 | > 100 | 4.95 | 34.5 | 5.38 | 66.2 | 5.27 | > 100 | 4.16 | 31.5 | 8.55 | > 100 |  | > 100 | 4.93 |
| COc1ccc(-c2nnc(Nc3nc(O)c(C4=c5cc(OC(F)(F)F)ccc5=NC4=O)s3)o2)cc1 | 20.2 | 75.4 | 18.5 | 49.3 | 13.9 | 30.3 | 12.4 | 69.2 | 5.75 | 90.8 | 14.4 | 30.4 | 21.9 | 54.3 | 17.8 | > 100 |  |  |  |
| Cc1ccc(-c2c3c(N)nc(-c4ccncc4)nc3nc3c2c(C)nn3-c2ccccc2)cc1 | 7.5 | > 37.5 | > 37.5 | > 37.5 | 4.51 | 13.4 | > 37.5 | > 37.5 | 7.65 | 20.1 | 5 | > 37.5 | > 37.5 | > 37.5 | 7.69 | > 37.5 |  |  |  |
| Cc1ccc2c(n1)C(=O)C(Cl)=C(Nc1ccc(N3CCN(C)CC3)cc1)C2=O | 3.09 | 9.45 | 2.37 | 5.78 | 1.73 | 3.19 | 1.68 | 3.08 | 1.63 | 3.13 | 2.72 | 8.92 | 1.63 | 2.98 | 1.88 | 3.31 |  |  |  |
| O=C1c2cccc3cccc(c23)C(=O)N1CC#Cc1ccc2c3c(cccc13)C(=O)N(CCN1CCNCC1)C2=O | > 100 | > 100 | 2.17 | 5.07 | 1.85 | 3.67 | 2.72 | 10.5 | 3.6 | 12.4 | 1.16 | 2.75 | 20.6 | 84.8 | 1.9 | 3.55 |  |  |  |
| COc1cc(-c2ccc(Nc3ccccc3C(=O)O)c(OC)c2)ccc1Nc1ccccc1C(=O)O |  | > 100 |  | > 100 |  | > 91.6 |  | > 71.1 |  | 39.1 |  | > 100 |  | > 58.9 |  | > 100 |  | > 72.8 |  |
| C/C(=C\CCc1ccsc1)CC/C=C(\C)CCCN1CCN(CCO)CC1 | 3.48 | 13.5 | 2.48 | 6.29 | 1.6 | 4.18 | 4.26 | 16.4 | 3.16 | 11.2 | 1.61 | 4.48 | 4.95 | 20.5 | 1.87 | 3.91 |  |  |  |
| CCN1CCN(CC(=O)Nc2nc3ccc(NCc4ccc(C)cc4)cc3s2)CC1 | 5.98 | 21.6 | 1.59 | 5.99 | 2.72 | 10 | 3.48 | 10.5 | 4.93 | 13.7 | 0.949 | 2.09 | 2.57 | 10.8 | 0.929 | 1.92 |  |  |  |
| O=C(O)CN(CC(=O)O)c1ccccc1 |  | > 100 |  | > 100 |  | > 100 |  | > 100 |  | > 100 |  | > 100 |  | > 100 |  | > 100 |  |  |  |
| CC(C)(C)C1CCC(CI)(N=[N+]=[N-])CC1 (stereo unspecified) |  |  |  | > 100 |  |  |  | > 100 |  | > 100 |  | > 100 |  | > 100 |  |  |  | > 100 |  |
| O=S1CCN(Cc2ccc(-c3ccc4ncnc(Nc5ccc(OCc6ccccc6)c(F)c5)c4c3)o2)CC1 | 7.36 | > 25 | 8.76 | > 25 | 7.07 | > 23.7 | 0.394 | > 25 | 7.93 | > 25 | 11.9 | > 25 | 4.85 | > 25 | 6.8 | > 20.5 |  |  |  |
